{"source": "paper PMC5317004", "about": "(Scientific Reports, 2017)", "system": "T1, homomeric GluClβR", "T1 construct": "homomeric receptors assembled from the full-length C. elegans GluClβ subunit; expressed in transfected cells; host or cells: CHO-K1 cells, transient transfection, pcDNA3.1", "assay": "Effect of IVM on Glu-elicited currents of homomeric GluClβ receptors in CHO cells (whole-cell patch clamp)", "format": "cell-based, C. elegans", "conditions": "pre-application of 2 μM IVM for 10 seconds, 100 mM Glu, +60 mV, four cells", "method": "Figure 9 Effect of IVM on homomeric GluClβ receptors. (A) Representative current traces obtained by the indicated application protocol. Glu (100 mM) was applied for either 350 ms to obtain peak IP0 at −60 mV, or 600 ms to obtain peaks IP1, IP2 and IP3 at +60 mV. Note that the responses at both membrane voltages, −60 and +60 mV, start to desensitize appreciably before the end of Glu application. IVM (2 μM) was applied for 10 seconds. Asterisk indicates a 25-sec-long wash between the second and third Glu applications. (B) Current-voltage (I/V) relations obtained in a different cell than in A upon the application of Glu (100 mM) over a voltage ramp lasting 200 ms. […] Current ratios were extracted from experiments performed as shown in (A). Mean ± SEM of four cells are presented. Paired, two-tailed Student’s t-tests indicate that **0.001 < P < 0.01 and ***P < 0.0002.\nSupplementary Information\nTrapping of ivermectin by a pentameric ligand-gated ion channel upon open-to-cl ose d i someri zati on N. Degani-Katzav, M. Klein, M. Har-Even, R. Gortler, R. Tobi and Y. Paas*\nSupplementary Materials and Methods […]\nThe electrode resistance was 6-10 MΩ when filled with the pipette solution. […] The currents w ere measured with an Axopatch 200B patch-clamp amplifier (Molecular Devices, Sunnyvale, CA) and a Digidata 1440A interface (Molecular Devices). […]"}
{"smiles": "CC[C@H](C)[C@H]1O[C@]2(CC[C@@H]1C)C[C@@H]1C[C@@H](C/C=C(\\C)[C@@H](O[C@H]3C[C@H](OC)[C@@H](O[C@H]4C[C@H](OC)[C@@H](O)[C@H](C)O4)[C@H](C)O3)[C@@H](C)/C=C/C=C3\\CO[C@@H]4[C@H](O)C(C)=C[C@@H](C(=O)O1)[C@]34O)O2", "note": "[IVM, Ivermectin]", "values": [{"measurement": "Glu response remaining after IVM pre-application (IP2/IP1 ratio)", "result": "~67", "unit": "%"}]}
